Test results taken from patent US20260225997A1, “IONIZABLE AMINE LIPIDS” (Intellia Therapeutics, Inc., priority 2018, published 2026).
Where two headings read alike, the source gives them in different places.

Legend:
[1] = pKa measurement of unformulated amine lipid (fluorescence, method of Jayaraman et al.); type: physicochemical; conditions: 100 μM in 0.1 M phosphate buffer pH 4.5-9.0
Method: The pKa of each amine lipid was determined according to the method in Jayaraman, et al. (Angewandte Chemie, 2012) with the following adaptations. […] Lipid was diluted to 100 μM in 0.1 M phosphate buffer (Boston Bioproducts) where the pH ranged from 4.5-9.0. Fluorescence intensity was measured using excitation and emission wavelengths of 321 nm and 448 nm.

[2] = RNA encapsulation efficiency of LNP (Ribogreen fluorescence assay); type: physicochemical
Procedure, shortened: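 LNP samples diluted in 1× TE buffer with 0.2% Triton X-100 (total RNA) or without it (free RNA), stained with RiboGreen for ~10 min at room temperature in the dark, read at ex 488/em 525 nm against RNA standard curves. Encapsulation efficiency = (Total RNA − Free RNA)/Total RNA.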

B2M = B2M editing in mouse liver by NGS after i.v. LNP delivery of Cas9 mRNA and sgRNA; type: in vivo; conditions: for Editing (%) B2M liver: 6 days post-dose, G650 1:1
Method: Preparations of various LNP compositions were prepared with amine lipids. In assays for percent liver editing in mice, Cas9 mRNA and chemically modified sgRNA were formulated in LNPs, at either a 1:1 w/w ratio or a 1:2 w/w ratio. LNPs are formulated with a composition of a given ionizable lipid (e.g. an amine lipid), DSPC, cholesterol, and PEG-2k-DMG, with a 6.0 N:P ratio.
LNPs were administered to mice by a single dose at 0.1 mg/kg, unless otherwise noted and genomic DNA was isolated for NGS analysis as described below.
CD-1 female mice, ranging from 6-10 weeks of age were used in each study. Animals were weighed and grouped according to body weight for preparing dosing solutions based on group average weight. LNPs were dosed via the lateral tail vein in a volume of 0.2 mL per animal (approximately 10 mL per kilogram body weight). The animals were periodically observed post dose for adverse effects for at least 24 hours post dose. Animals were euthanized at 6 or 7 days by exsanguination via cardiac puncture under isoflurane anesthesia. Blood was collected into serum separator tubes or into tubes containing buffered sodium citrate for plasma as described herein. For studies involving in vivo editing, liver tissue was collected from each animal for DNA extraction and analysis.
Cohorts of mice were measured for liver editing by Next-Generation Sequencing (NGS).
In brief, to quantitatively determine the efficiency of editing at the target location in the genome, genomic DNA was isolated and deep sequencing was utilized to identify the presence of insertions and deletions introduced by gene editing.
PCR primers were designed around the target site (e.g., B2M), and the genomic area of interest was amplified. Additional PCR was performed according to the manufacturer's protocols (Illumina) to add the necessary chemistry for sequencing. The amplicons were sequenced on an Illumina MiSeq instrument. The reads were aligned to the […] after eliminating those having low quality scores. The resulting files containing the reads were mapped to the reference genome (BAM files), where reads that overlapped the target region of interest were selected and the number of wild type reads versus the number of reads which contain an insertion, substitution, or deletion was calculated.
The editing percentage (e.g., the “editing efficiency” or “percent editing”) is defined as the total number of sequence reads with insertions or deletions over the total number of sequence reads, including wild type.
CD-1 female mice were dosed i.v. at 0.1 mpk or 0.3 mpk. […] For animals dosed with G282 targeting TTR, blood and the liver were collected and serum TTR and editing were measured. For animals dosed with G650 targeting B2M, liver was collected and editing was measured.

TTR = experiment: Transthyretin (TTR) ELISA analysis of mouse serum after LNP dosing; type: in vivo; conditions: for response vs control in vivo at 0.1 mg/kg / response vs control in vivo at 0.03 mg/kg: Mus musculus, iv, read-out: Serum TTR % TSS
Procedure, shortened: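 Female CD-1 mice aged 6-10 weeks were grouped by body weight and given LNPs by lateral tail vein injection (0.2 mL per animal, about 10 mL per kilogram). Mice were bled by cardiac puncture under isoflurane into serum separator tubes. Serum was diluted 10,000-fold for the 0.1 mpk dose, and total TTR was quantified with a Mouse Prealbumin (Transthyretin) ELISA Kit following the kit directions.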

[3] = Example 55: 0.1 mpk i.v., 7 days post-dose, G282 1:1

Compound: CCCCCCCCCOC(=O)CCCCCCCN(CCO)CCCCCCCC(OCCCCCCCC)OCCCCCCCC [Compound 1, nonyl 8-((8,8-bis(octyloxy)octyl)(2-hydroxyethyl)amino octanoate]
- pKa [1]: 6.3
- Encapsulation (%) ([2]; Table 3, Example 52: LNP, Cas9 mRNA + sgRNA (G650) 1:1 w/w, N:P 6.0, Compound 19 50/9/38/3, others 50/10/38.5/1.5): 98%
- Encapsulation (%) ([2]; Table 5, Example 53: LNP with gRNA G282 (TTR), 1:1 w/w, N:P 6.0): 97%
- Encapsulation (%) ([2]; Table 5, Example 53: LNP with gRNA G650 (B2M), 1:1 w/w, N:P 6.0): 98%
- Encapsulation (%) ([2]; Table 10, Example 55: LNP, G282 (TTR) 1:1 w/w, N:P 6.0): 97%
- Encapsulation (%) ([2]; Table 14, Example 58: LNP, G282 (TTR) 1:1 w/w, N:P 6.0): 97%
- Encapsulation (%) ([2]; Table 16, Example 59: LNP, G282 (TTR) 1:1 w/w, N:P 6.0): 96%
- Encapsulation (%) ([2]; Table 18, Example 60: LNP, G502 (TTR), sgRNA:Cas9 mRNA 1:2 w/w, N:P 6.0): 97%
- Encapsulation (%) ([2]; Table 22, Example 62: LNP, G282 (TTR), sgRNA:Cas9 mRNA 1:2 w/w, N:P 6.0): 97%
- Encapsulation (%) ([2]; Table 24, Example 63: LNP, G282 (TTR) 1:1 w/w, NP 6.0): 98%
- Editing (%) of B2M in mouse liver (B2M; Example 52: LNP single dose 0.1 mg/kg i.v., CD-1 female mice, sgRNA G650:Cas9 mRNA 1:1, NGS): 36.8%
- Editing (%) B2M liver (B2M; Example 53: 0.1 mpk i.v., CD-1 female mice): 41.0%
- Editing (%) B2M liver (B2M; Example 53: 0.3 mpk i.v., CD-1 female mice): 62.9%
- B2M editing in the liver compared with Compound 19 (B2M; Example 53 text: 0.1 and 0.3 mpk): higher B2M editing in the liver than Compound 19 at each dose
- dose response of B2M editing in liver (B2M; Example 53 text: 0.1 mpk vs 0.3 mpk): increased editing of B2M in liver significantly between the 0.1 mpk and 0.3 mpk doses
- TSS (serum TTR % TSS) (TTR; Example 53: 0.1 mpk i.v., 6 days post-dose, G282 1:1): 5 % TSS
- Serum TTR (TTR; Example 53: 0.1 mpk i.v., CD-1 female mice, 6 days post-dose, G282 1:1): 19 µg/mL
- TSS (serum TTR % TSS) (TTR; Example 53: 0.3 mpk i.v., 6 days post-dose, G282 1:1): 5 % TSS
- Serum TTR (TTR; Example 53: 0.3 mpk i.v., CD-1 female mice, 6 days post-dose, G282 1:1): 5 µg/mL
- Serum TTR (TTR; [3]): 391 µg/mL
- Serum TTR (% TSS) (TTR; [3]): 34 % TSS
- Serum TTR (TTR; Example 58: 0.1 mpk i.v., 6 days post-dose, G282 1:1): 656 µg/mL
- Serum TTR (TTR; Example 59: 0.1 mpk i.v., 7 days post-dose, G282 1:1): 327 µg/mL
- Serum TTR (TTR; Example 60: 0.1 mpk i.v., 6 days post-dose, G502 1:2): 353 µg/mL
- Serum TTR (TTR; Example 62: 0.03 mpk i.v., 7 days post-dose, G282 1:2): 594 µg/mL
- Serum TTR (TTR; Example 62: 0.1 mpk i.v., 7 days post-dose, G282 1:2): 241 µg/mL
- Serum TTR (TTR; Example 63: 0.03 mpk i.v., 7 days post-dose, G282 1:1): 741.05 µg/mL
- Serum TTR (TTR; Example 63: 0.1 mpk i.v., 7 days post-dose, G282 1:1): 351.76 µg/mL
- response vs control in vivo at 0.1 mg/kg (TTR; 144 h, Example 58: 0.1 mpk i.v., 6 days post-dose, G282 1:1): 66%
- response vs control in vivo at 0.1 mg/kg (TTR; 144 h, Example 60: 0.1 mpk i.v., 6 days post-dose, G502 1:2): 25%
- response vs control in vivo at 0.1 mg/kg (TTR; 168 h, Example 59: 0.1 mpk i.v., 7 days post-dose, G282 1:1): 35%
- response vs control in vivo at 0.03 mg/kg (TTR; 168 h, Example 62: 0.03 mpk i.v., 7 days post-dose, G282 1:2): 93%
- response vs control in vivo at 0.1 mg/kg (TTR; 168 h, Example 62: 0.1 mpk i.v., 7 days post-dose, G282 1:2): 38%
- response vs control in vivo at 0.03 mg/kg (TTR; 168 h, Example 63: 0.03 mpk i.v., 7 days post-dose, G282 1:1): 91.8%
- response vs control in vivo at 0.1 mg/kg (TTR; 168 h, Example 63: 0.1 mpk i.v., 7 days post-dose, G282 1:1): 43.6%
